Results on one sequence are retold here after patent US20220267390A1, “MPS MODIFIED PEPTIDES AND USE THEREOF” (The Regents of the University of California, priority 2019, published 2022).

The subject of test [1] is phospho-MARCKS, phospho-AKT and α-SMA. Description: Western blot in lung fibroblast cells isolated from bleomycin-treated mice. In kind it is cell-based. Particulars: 100 μM, 48 hours, fibroblasts from bleomycin-treated mice. The method, then:
FIGS. 7A-7B: (FIG. 7A) Western blots analysis of phospho-MARCKS, phospho-AKT and α-SMA expression in lung fibroblast cells isolated from saline- or bleomycin-treated mice after 48 hours of treatment with control or MPS peptides (100 μM). (FIG. 7B) Effect of MPS peptide on cell viability of lung fibroblasts isolated from saline- (mFb-Saline) or bleomycin-treated (mFb-Bleomycin) mice (n=4; *, p<0.05).
MPS peptide potentially serves as an antifibrotic agent in bleomycin-induced pulmonary fibrosis. Bleomycin remains the standard agent for induction of experimental pulmonary fibrosis in animals^23. Thus, 8-week-old female C57BL/6J mice received saline or bleomycin intratracheally (33 μg in […] of saline) as previously described^23. Lung specimens from bleomycin- or saline-treated mice were collected and subjected to immunofluorescence staining. […] Next, lung fibroblast cells isolated from saline- or bleomycin-treated mice (two mice fibroblast cell lines were gifts from Dr. Sem H. Phan, University of Michigan School of Medicine, MI) were incubated with either 100 μM control or MPS peptide for 48 hours. […] The feasibility of the MPS peptide as an antifibrotic agent in a bleomycin-induced pulmonary fibrosis was tested. […] Saline- and bleomycin-exposed mice then were treated with either PBS or MPS peptide (28 mg/kg) intraperitoneally every other day. To ascertain the therapeutic effect of MPS peptide on pulmonary fibrosis, MPS was administered intraperitoneally during the “fibrotic” phase of the model. […]
Western blot analyses and the preparations of whole-cell lysates have been previously described^14, 16, 27 For whole cell lysates, cells were lysed in a lysis buffer (50 mM Tris-HCl (pH 7.4), 1% Triton X-100, 10% glycerol, 150 mM NaCl, 1 mM EDTA, 20 μg/ml leupeptin, 1 mM PMSF and 20 μg/ml aprotinin) and separated by SDS-PAGE. […] The cells were mounted onto slides and visualized using fluorescence microscopy (model Axiovert 100; Carl Zeiss, Oberkochen, Germany) or a Zeiss LSM510 laser-scanning confocal microscope image system.
(In general: In western blotting, separated proteins are transferred to a membrane and probed.)

Test [2] deals with primary IPF fibroblasts. Description: Combination of nintedanib and MPS peptide, cell viability by MTT, Chou and Talalay CI. It counts as cell-based, human. Particulars: nintedanib 62.5-2000 nM and/or MPS 6.25-200 μM, 72 hours. The method, then:
FIGS. 12A-12E: (FIGS. 12A-12B) Combinatorial effect of MPS peptide with nintedanib on fibroblasts isolated from two IPF patients. Cells were treated with various closes of nintedanib (62.5-2000 nM) and/or MPS peptide (6.25-200 μM) for 72 hours, respectively. After single ([…]) or combined ([…]) treatment, cell viability was determined by MTT assays. (FIG. 12C) The Chou and Talalay CI (combination index) method was utilized to evaluate the therapeutic interactions between nintedanib and MPS peptide using the Calcusyn software. Gray line, additive effect of the combination of MPS peptide and the drug is represented at CI=1. (FIG. 12D) Cells were individually treated with 1 μM nintedanib, 100 μM MPS peptide or combinations of 1 μM nintedanib and 100 μM MPS peptide. After 48 hours, cell viability was determined by the trypan blue exclusion assay (n+3; *, p<0.05). […] Molecular basis of MPS peptide and its potential for increasing nintedanib efficacy. […] A kinetic assay confirmed that this peptide binds PIP2 with a dissociation constant of 17.64 nM (FIG. 10B). As expected, a decrease of PIP3 pools in whole cell lysates of MPS-treated IPF fibroblasts was observed (FIG. 10C), supporting the notion that MPS peptide is able to inhibit AKT activation through trapping PIP2. […]

Where no end group is shown, it is not given here.

For the sequence KKKKKRFSFKKSFKLSGFSFKKNKK [MPS peptide], in test [1], the phospho-AKT expression result is “decrease”, the phospho-MARCKS expression entry is recorded as “decrease” and the α-SMA expression result is on record as “decrease”. Also, in test [2], the Cell viability entry is “decreased”.
